Reference: PubChem BioAssay (NCI)
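Step 1: Grow cells in 96-well plates. Step 2: Expose to compound for 48 hours at 5 concentrations. Step 3: Interpolate endpoints linearly; if unreached, use highest concentration. Abbreviation: GI50, concentration required for 50% inhibition of growth. At the TGI there is no net growth.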

Key:
Test in all cases: DTP human tumour cell line panel, 48 h
[1] = system: 786-0 renal
[2] = system: A498 renal
[3] = system: A549 NSCLC
[4] = system: ACHN renal
[5] = system: BT-549 breast
[6] = system: CAKI-1 renal
[7] = system: CCRF-CEM leukemia
[8] = system: COLO 205 colon
[9] = system: DU-145 prostate
[10] = system: HCC-2998 colon
[11] = system: HCT-116 colon
[12] = system: HCT-15 colon
[13] = system: HL-60(TB) leukemia
[14] = system: HOP-62 NSCLC
[15] = system: HOP-92 NSCLC
[16] = system: HS 578T breast
[17] = system: HT29 colon
[18] = system: IGROV1 ovarian
[19] = system: K-562 leukemia
[20] = system: KM12 colon
[21] = system: LOX IMVI melanoma
[22] = system: M14 melanoma
[23] = system: MALME-3M melanoma
[24] = system: MCF7 breast
[25] = system: MDA-MB-231 breast
[26] = system: MOLT-4 leukemia
[27] = system: NCI-H226 lung
[28] = system: NCI-H23 lung
[29] = system: NCI-H460 lung
[30] = system: NCI-H522 lung
[31] = system: NCI/ADR-RES ovarian
[32] = system: OVCAR-3 ovarian
[33] = system: OVCAR-4 ovarian
[34] = system: OVCAR-5 ovarian
[35] = system: OVCAR-8 ovarian
[36] = system: PC-3 prostate
[37] = system: RPMI-8226 leukemia
[38] = system: RXF 393 renal
[39] = system: SF-268 CNS
[40] = system: SF-295 CNS
[41] = system: SK-MEL-2 melanoma
[42] = system: SK-MEL-28 melanoma
[43] = system: SK-MEL-5 melanoma
[44] = system: SK-OV-3 ovarian
[45] = system: SN12C renal
[46] = system: SNB-19 CNS
[47] = system: SNB-75 CNS
[48] = system: SR leukemia
[49] = system: SW-620 colon
[50] = system: T-47D breast
[51] = system: TK-10 renal
[52] = system: U251 CNS
[53] = system: UACC-257 melanoma
[54] = system: UACC-62 melanoma
[55] = system: UO-31 renal
[56] = system: EKVX NSCLC
[57] = system: MDA-MB-435
[58] = system: SF-539 CNS

## CSc1c(C2=C(c3cn(C)c4ccccc34)C(=O)NC2=O)c2ccccc2n1C
[1]
  GI50: 1.19 µM
  TGI: > 25 µM
[2]
  GI50: 0.376 µM
  TGI: 2.11 µM
[3]
  GI50: 1.14 µM
  TGI: > 25 µM
[4]
  GI50: 0.845 µM
  TGI: > 25 µM
[5]
  GI50: 0.747 µM
  TGI: 11.5 µM
[6]
  GI50: 0.741 µM
  TGI: > 20.4 µM
[7]
  GI50: 0.793 µM
  TGI: > 17 µM
[8]
  GI50: 0.675 µM
  TGI: > 25 µM
[9]
  GI50: 1.13 µM
  TGI: > 25 µM
[10]
  GI50: 5.31 µM
  TGI: > 25 µM
[11]
  GI50: 1.04 µM
  TGI: > 25 µM
[12]
  GI50: 0.755 µM
  TGI: > 25 µM
[13]
  GI50: 0.703 µM
  TGI: 3.55 µM
[14]
  GI50: 1.38 µM
  TGI: > 25 µM
[15]
  GI50: 0.599 µM
  TGI: > 25 µM
[16]
  GI50: 0.59 µM
  TGI: > 25 µM
[17]
  GI50: 0.814 µM
  TGI: > 25 µM
[18]
  GI50: 1.39 µM
  TGI: > 25 µM
[19]
  GI50: 0.665 µM
  TGI: > 25 µM
[20]
  GI50: 0.843 µM
  TGI: > 25 µM
[21]
  GI50: 1.54 µM
  TGI: > 25 µM
[22]
  GI50: 0.649 µM
  TGI: > 25 µM
[23]
  GI50: 1.21 µM
  TGI: > 25 µM
[24]
  GI50: 0.805 µM
  TGI: > 25 µM
[25]
  GI50: 2.57 µM
  TGI: > 25 µM
[26]
  GI50: 1.43 µM
  TGI: 8.78 µM
[27]
  GI50: 3.21 µM
  TGI: > 25 µM
[28]
  GI50: 1.39 µM
  TGI: > 25 µM
[29]
  GI50: 0.832 µM
  TGI: > 25 µM
[30]
  GI50: 0.367 µM
  TGI: 1.59 µM
[31]
  GI50: 1.02 µM
  TGI: > 25 µM
[32]
  GI50: 0.629 µM
  TGI: 2 µM
[33]
  GI50: 1.2 µM
  TGI: > 22.5 µM
[34]
  GI50: 23.4 µM
  TGI: > 25 µM
[35]
  GI50: 1.56 µM
  TGI: > 25 µM
[36]
  GI50: 0.795 µM
  TGI: > 25 µM
[37]
  GI50: 0.813 µM
  TGI: > 7.04 µM
[38]
  GI50: 0.273 µM
  TGI: 1.4 µM
[39]
  GI50: 1.51 µM
  TGI: > 25 µM
[40]
  GI50: 0.671 µM
  TGI: > 25 µM
[41]
  GI50: 0.689 µM
  TGI: 5.37 µM
[42]
  GI50: 1.85 µM
  TGI: > 25 µM
[43]
  GI50: 0.758 µM
  TGI: 6.88 µM
[44]
  GI50: 0.833 µM
  TGI: > 25 µM
[45]
  GI50: 1.49 µM
  TGI: > 25 µM
[46]
  GI50: > 25 µM
  TGI: > 25 µM
[47]
  GI50: 0.728 µM
  TGI: > 12.6 µM
[48]
  GI50: 0.128 µM
  TGI: 1.88 µM
[49]
  GI50: 0.736 µM
  TGI: > 25 µM
[50]
  GI50: 1.15 µM
  TGI: > 25 µM
[51]
  GI50: 0.606 µM
  TGI: > 25 µM
[52]
  GI50: 1.23 µM
  TGI: > 25 µM
[53]
  GI50: 1.41 µM
  TGI: > 25 µM
[54]
  GI50: 0.896 µM
  TGI: > 25 µM
[55]
  GI50: 0.703 µM
  TGI: > 19.4 µM

## COc1ccc2c3c(Nc4cccc(/C(C)=N\O)c4)[nH]c4ccccc4c-3c(N=O)c2c1
[2]
  GI50: 78.1 µM
  TGI: > 100 µM
[3]
  GI50: 27.6 µM
  TGI: > 100 µM
[4]
  GI50: 33.3 µM
  TGI: 91.7 µM
[5]
  GI50: 47 µM
  TGI: > 100 µM
[6]
  GI50: 29.3 µM
  TGI: 54.8 µM
[7]
  GI50: 13.6 µM
  TGI: > 100 µM
[8]
  GI50: 21.3 µM
  TGI: 57.1 µM
[9]
  GI50: 16 µM
  TGI: 75.1 µM
[56]
  GI50: 20.5 µM
  TGI: 93.2 µM
[10]
  GI50: 10.6 µM
  TGI: 22.4 µM
[11]
  GI50: 14.6 µM
  TGI: 34.2 µM
[12]
  GI50: 18 µM
  TGI: 39.6 µM
[13]
  GI50: 16.9 µM
  TGI: > 100 µM
[14]
  GI50: 37.9 µM
  TGI: > 100 µM
[16]
  GI50: 94.8 µM
  TGI: > 100 µM
[17]
  GI50: 18.3 µM
  TGI: > 100 µM
[18]
  GI50: 26.1 µM
  TGI: 84.5 µM
[19]
  GI50: 31.6 µM
  TGI: > 100 µM
[20]
  GI50: 28.1 µM
  TGI: > 100 µM
[21]
  GI50: 29.1 µM
  TGI: 67.7 µM
[22]
  GI50: 29.9 µM
  TGI: > 100 µM
[23]
  GI50: 34.7 µM
  TGI: 95.5 µM
[24]
  GI50: 73.9 µM
  TGI: > 100 µM
[25]
  GI50: 18.9 µM
  TGI: 44.5 µM
[57]
  GI50: 30.9 µM
  TGI: > 100 µM
[26]
  GI50: 7 µM
  TGI: 62.2 µM
[27]
  GI50: 54 µM
  TGI: > 100 µM
[28]
  GI50: 0.752 µM
  TGI: 27.1 µM
[29]
  GI50: 33.6 µM
  TGI: > 100 µM
[30]
  GI50: 46.2 µM
  TGI: > 100 µM
[31]
  GI50: 21.2 µM
  TGI: 96.9 µM
[32]
  GI50: 33.2 µM
  TGI: 88.2 µM
[33]
  GI50: 29 µM
  TGI: > 100 µM
[34]
  GI50: 26.5 µM
  TGI: 96.9 µM
[35]
  GI50: 25.8 µM
  TGI: > 100 µM
[36]
  GI50: 20.5 µM
  TGI: 65.4 µM
[37]
  GI50: 25.5 µM
  TGI: > 100 µM
[39]
  GI50: > 100 µM
  TGI: > 100 µM
[40]
  GI50: > 100 µM
  TGI: > 100 µM
[58]
  GI50: > 100 µM
  TGI: > 100 µM
[41]
  GI50: 19.7 µM
  TGI: 67.7 µM
[42]
  GI50: 12.7 µM
  TGI: 42.7 µM
[43]
  GI50: 29.8 µM
  TGI: > 100 µM
[45]
  GI50: 30 µM
  TGI: > 100 µM
[46]
  GI50: 43.7 µM
  TGI: > 100 µM
[48]
  GI50: 20.4 µM
  TGI: > 100 µM
[49]
  GI50: 32.1 µM
  TGI: > 100 µM
[50]
  GI50: 16.9 µM
  TGI: > 100 µM
[51]
  GI50: 80.3 µM
  TGI: > 100 µM
[52]
  GI50: 33.3 µM
  TGI: > 100 µM
[53]
  GI50: 41 µM
  TGI: > 100 µM
[54]
  GI50: 43.9 µM
  TGI: > 100 µM
[55]
  GI50: 52.9 µM
  TGI: > 100 µM
